Measurements from patent US20060258561A1, “Novel NPH insulin preparations” (Novo Nordisk A/S, priority 2003, published 2006).
pKd: −log10 of the molar value. Read-outs that look alike come from different tables or passages of the source.

Legend:
[1] = NPH-insulin crystallisation in the presence of ligand (co-crystallisation); format: physicochemical; settings: human insulin NPH crystals grown overnight with ligand equimolar to Zn2+, pH 7.3
Method: Preparation of NPH-insulin in the presence of ligands for the His^B10 Zn^2+-site of the R-state insulin hexamer.
Preparations are prepared by mixing equal volumes of the following two solutions: a) 1.2 mM human insulin, 0.46 mM Zn^2+, 28 mM phosphate, 1.6% glycerol, 0.15% m-cresol, 0.065% phenol, and 0.46 mM ligand for the HisB10 Zn^2+-site (see below), optionally the ligand was added as a 9.2 mM DMSO solution, pH 7.5; and b) 0.636 mg/mL protamine sulphate 1.6% glycerol, 0.15% m-cresol, 0.065% phenol, pH 6. The NPH-crystals grow overnight from the resulting suspension, pH 7.3.

[2] = target: T1, R-state His^B10 Zn^2+ site of insulin R6 hexamers (Homo sapiens, UniProt P01308); test: TZD-assay: fluorescence displacement of 5-(4-dimethylaminobenzylidene)thiazolidine-2,4-dione from insulin R6 hexamers; format: binding
T1 construct: human insulin comprising additional amino acids, i.e. more than 51 amino acids
T1 sequence (P01308 25-54 limits assumed): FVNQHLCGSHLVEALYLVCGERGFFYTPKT
T1 sequence (P01308 90-110 limits assumed): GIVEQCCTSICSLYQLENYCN
Method: However, ligands with substantially higher affinity for the His^B10 Zn^2+-site may be found and characterized by using a fluorescence based competition assay which is based on the displacement of 5-(4-dimethylaminobenzylidene)-thiazolidine-2,4-dione from the R-state His^B10 Zn^2+-site by the incoming ligand in question.
TZD-Assay for Quantitation of Ligands Binding to the R-State His^B10 Zn^2+:
The binding affinity of ligands to the metal site of insulin R6 hexamers are measured in a fluorescense based displacement assay. The fluorescence of 5-(4-dimethylaminobenzylidene)thiazolidine-2,4-dione (TZD) which is a ligand for the metal site of insulin R6 is quenched upon displacement from the metal site to the solution. Titration of a ligand to a stock solution of insulin R6 hexamers with this compound mounted in the metal site allows the binding affinity of these ligands to be determined measuring the fluorescence at 455 nm upon excitation at 410 nm.
Stock solution: 0.02 mM human insulin, 0.007 mM Zn-acetate, 40 mM phenol, 0.01 mM TZD in 50 mM tris buffer adjusted to pH=8.0 with NaOH/ClO4^−.
The ligand is dissolved in DMSO to a concentration of 5 mM and added in aliquots to the stock solution to final concentrations of 0-250 μM.
Fluorescence measurements were carried out on a Perkin Elmer Spectrofluorometer LS50B. The main absorption band was excited at 410 nm and emission was detected at 455 nm. The resolution was 10 nm and 2.5 nm for excitation and emission, respectively.
This equation is fitted to the datapoints ΔF(455 nm))=ΔFmax*[ligand]free/(KD(app)*(1+[TZD]/KTZD)+[ligand]free)) KD(app) is the apparent dissociation constant and Fmax is the fluorescence at maximal ligand concentration. The value of KTZD is measured separately to 230 nM
Two different fitting-procedures can be used. One in which both parameters, KD(app) and Fmax, are adjusted to best fit the data and a second in which the value of Fmax is fixed (Fmax=1) and only KD(app) is adjusted. The given data are from the second fitting procedure. The Solver module of Microsoft Excel can be used to generate the fits from the datapoints.

[3] = target: T2, metal site of insulin R6 hexamers (Homo sapiens, UniProt P01308); settings: taken from Huang et al., 1997, Biochemistry 36, 9878-9888; read-out: K4H3N; cited from earlier work
T2 construct: human insulin comprising additional amino acids, i.e. more than 51 amino acids
T2 sequence (P01308 25-54 limits assumed): as the sequence (P01308 25-54 limits assumed) above

[4] = human insulin R6 hexamers, 40 mM phenol, tris pH 8.0, apparent KD, fit with Fmax fixed, read-out: Kd as observed in the 5-(4-imethylaminobenzylidene)-thiazolidine-2,4-dione assay

Row | NPH-insulin crystal size [1] | pKd [2, 4] | melting point [°C] | SMILES | further results
1 | <2 μ | 7.42 |  | c1ccc(-c2ccc(Cn3ccc4cc(-c5nnn[nH]5)ccc43)cc2)cc1 [1-(4-Phenylbenzyl)-5-(1H-tetrazol-5-yl)-1H-indole] | 
2 | <2 μ | 6.76 |  | O=C(O)c1ccc(Cn2c3ccccc3c3cc(-c4nnn[nH]4)ccc32)cc1 [4-[3-(1H-Tetrazol-5-yl)-carbazol-9-ylmethyl]-benzoic acid] | 
3 | <2 μ | > 8.00 |  | Cc1cc(/C=C2\SC(=O)NC2=O)c(C)c2c1[nH]c1ccccc12 [5-(1,4-Dimethyl-9H-carbazol-3-ylmethylene)-thiazolidine-2,4-dione] | 
4 | 2-6 μ | > 8.00 |  | Cc1[nH]c2ccccc2c1/C=C1\SC(=O)NC1=O [5-(2-methyl-1H-indol-3-ylmethylene) thiazolidine-2,4-dione] | 
5 | 2 μ | 7.00 |  | O=C1NC(=O)C(Cc2cccc3ccccc23)S1 (centres unmarked) [5-Napthalen-1-ylmethyl-thiazolidine-2,4-dione] | 
6 | 4-10 μ | 7.68 |  | O=C1NC(=O)/C(=C/c2cccc3ccccc23)S1 [5-Napthalen-1-ylmethylene-thiazolidine-2,4-dione] | 
7 | 5-20 μ | 6.58 |  | O=C(O)c1cc2cc(Br)ccc2cc1O [7-Bromo-3-hydroxy-2-napthoic acid] | 
8 | 1-3 μ | 7.17 |  | c1ccc(Cn2c3ccccc3c3cc(-c4nnn[nH]4)ccc32)cc1 [9-Benzyl-3-(1H-tetrazol-5-yl)-9H-carbazole] | 
9 |  |  |  | O=C(O)c1ccc(O)c([N+](=O)[O-])c1 [Example 4H3N, 4-hydroxy-3-nitrobenzoic acid] | pKd [3]: 4.30
10 |  |  | 256 | COc1cc(/C=C2\SC(=O)NC2=O)cc(I)c1O [Example 167, 5-(4-Hydroxy-3-iodo-5-methoxybenzylidene)thiazolidine-2,4-dione] | 
11 |  |  | 310 to 314 | O=C1NC(=O)/C(=C/c2ccc3cc(O)ccc3c2)S1 [Example 171, 5-(6-Hydroxy-2-naphthylmethylene) thiazolidine-2,4-dione] | 
12 |  |  | 330 to 333 | O=C1NC(=O)C(=Cc2c[nH]c3ccc([N+](=O)[O-])cc23)S1 [Example 199, 5-(5-Nitro-1H-indol-3-ylmethylene)thiazolidine-2,4-dione] | 
13 |  |  | 331 to 333 | COc1cc(O)cc(OC)c1/C=C1\SC(=O)NC1=O [Example 234, 5-(4-Hydroxy-2,6-dimethoxybenzylidene)thiazolidine-2,4-dione] | 
14 |  |  | 104 to 105 | Cc1cccc(C)c1/C=C1\SC(=O)NC1=O [Example 235, 5-(2,6-Dimethylbenzylidene)thiazolidine-2,4-dione] | 
15 |  |  | 241 to 242 | COc1cccc(OC)c1/C=C1\SC(=O)NC1=O [Example 236, 5-(2,6-Dimethoxybenzylidene)thiazolidine-2,4-dione] | 
16 |  |  | 255 to 256 | COc1cc(OCc2c(F)cccc2[N+](=O)[O-])cc(OC)c1/C=C1\SC(=O)NC1=O [Example 237, 5-[4-(2-Fluoro-6-nitrobenzyloxy)-2,6-dimethoxybenzylidene]thiazolidine-2,4-dione] | 
17 |  |  | 265 to 266 | O=C1NC(=O)/C(=C/c2cc3ccccc3o2)S1 [Example 238, 5-Benzofuran-2-ylmethylenethiazolidine-2,4-dione] | 
18 |  |  | 259 to 263 | CN(C)c1ccc(/C=C/C=C2\SC(=O)NC2=O)cc1 [Example 239, 5-[3-(4-Dimethylaminophenyl)allylidene]thiazolidine-2,4-dione] | 
19 |  |  | 203 to 210 | CC(/C=C1\SC(=O)NC1=O)=C\c1ccccc1 [Example 240, 5-(2-Methyl-3-phenylallylidene)thiazolidine-2,4-dione] | 
20 |  |  | 338 to 347 | O=C1NC(=O)/C(=C/c2cc3ccccc3[nH]c2=O)S1 [Example 242, 5-(2-Oxo-1,2-dihydroquinolin-3-ylmethylene)thiazolidine-2,4-dione] | 
21 |  |  | 200 to 202 | c1cc(COc2ccc3ccccc3c2)cc(-c2nnn[nH]2)c1 [Example 572, 5-(3-(Naphthalen-2-yloxymethyl)-phenyl)-1H-tetrazole] | 
22 |  |  |  | CN(C)c1ccc(C=C2SC(O)=NC2=O)cc1 [TZD, 5-(4-dimethylaminobenzylidene)-thiazolidine-2,4-dione, reference compound] | pKd ([2]; measured separately, read-out: KTZD): 6.64
23 | 2-10 μ | 7.96 |  | O=C(O)COc1ccc(/C=C2\SC(=O)NC2=O)c2ccccc12 [[4-(2,4-Dioxothiazolidin-5-ylidenemethyl)-naphthalen-1-yloxy]-acetic acid] | 
